Laboratory results taken from US8796180B2, “Aminoquinazoline compounds for combating invertebrate pests” (BASF SE, priority 2009, dated 2014).

Assays:
Format in all cases: in vivo
[1] = tested on: Mediterranean fruitfly (Ceratitis capitata); assay: Mediterranean fruitfly insect diet microtiter test (B.9); details: 120 h, test concentration 800 ppm, egg and larval mortality on insect diet, 5 days
Method: B. 9 Mediterranean fruitfly (Ceratitis capitata)
(§1) For evaluating control of Mediterranean fruitfly (Ceratitis capitata) the test unit consisted of microtiter plates containing an insect diet and 50-80 C. capitata eggs. The compounds were formulated using a solution containing 75% v/v water and 25% v/v DMSO. Different concentrations of formulated compounds were sprayed onto the insect diet at 5 μl, using a custom built micro atomizer, at two replications. After application, microtiter plates were incubated at about 28±1° C. and about 80±5% relative humidity for 5 days. Egg and larval mortality was then visually assessed.

[2] = tested on: Tobacco budworm (Heliothis virescens); assay: Tobacco budworm insect diet microtiter test (B.10); details: 120 h, test concentration 800 ppm, egg and larval mortality on insect diet, 5 days
Method: B.10 Tobacco budworm (Heliothis virescens)
as §1, with “of tobacco budworm (Heliothis virescens)” for “of Mediterranean fruitfly (Ceratitis capitata)”, “unit consists” for “unit consisted”, “of 96-well-microtiter” for “of microtiter”, “and 15-25 H. virescens” for “and 50-80 C. capitata”, “at 10” for “at 5”

[3] = tested on: Diamondback moth (Plutella xylostella); assay: Diamondback moth leaf-dip test on Chinese cabbage (B.4); details: test concentration 500 ppm, dipped Chinese cabbage leaves, mortality recorded 24, 72 and 120 hours after treatment, read-out: mortality in comparison with untreated controls
Method: B.4 Diamondback moth (Plutella xylostella)
The active compound was dissolved at the desired concentration in a mixture of 1:1 (vol:vol) distilled water:acetone. The test solution was prepared at the day of use.
The activity against Plutella xylostella can be tested by the following experiments:
Leaves of Chinese cabbage were dipped in test solution and air-dried. Treated leaves were placed in petri dished lined with moist filter paper. Mortality was recorded 24, 72, and 120 hours after treatment.

[4] = tested on: Colorado potato beetle (Leptinotarsa decemlineata, adult); assay: Colorado potato beetle test on treated eggplant foliage (B.3); details: test concentration 300 ppm, assessed 4 days after treatment
Method: B.3 Colorado potato beetle (Leptinotarsa decemlineata, adult)
The active compounds were formulated in cyclohexanone as a 10,0000 ppm solution supplied in 1.3 ml ABgene® tubes. These tubes were inserted into an automated electrostatic sprayer equipped with an atomizing nozzle and they served as stock solutions for which lower dilutions were made in 50% acetone:50% water (v/v). A nonionic surfactant (Kinetic®) was included in the solution at a volume of 0.01% (v/v). Eggplants were grown 2 plants to a pot and were selected for treatment at the 1st true leaf stage. Test solutions were sprayed onto the foliage by an automated electrostatic plant sprayer equipped with an atomizing spray nozzle. The plants were dried in the sprayer fume hood and then removed from the sprayer. The treated foliage was then cut and removed from the pot and placed in a 5-inch Petri dish lined with moistened filter paper. Five beetle larvae were introduced into each Petri dish and the dish was covered by a Petri dish lid. Petri dishes were maintained in a growth room at 25° C. and 20-40% relative humidity for 4 days, avoiding direct exposure to fluorescent light (24 hour photoperiod) to prevent trapping of heat inside the dishes. Mortality and reduced feeding were assessed 4 days after treatment, compared to untreated control plants.

[5] = tested on: Southern Armyworm (Spodoptera eridania, 2nd instar larvae); assay: Southern Armyworm foliar spray test on lima bean plants (B.1); details: 96 h, assessed 4 days after treatment, read-out: mortality in comparison with untreated controls
Method: B.1 Southern Armyworm (Spodoptera eridania, 2nd instar larvae)
The active compounds were formulated in cyclohexanone as a 10,0000 ppm solution supplied in 1.3 ml ABgene® tubes. These tubes were inserted into an automated electrostatic sprayer equipped with an atomizing nozzle and they served as stock solutions for which lower dilutions were made in 50% acetone: 50% water (v/v). A nonionic surfactant (Kinetic®) was included in the solution at a volume of 0.01% (v/v). Lima bean plants (variety Sieva) were grown 2 plants to a pot and selected for treatment at the 1st true leaf stage. Test solutions were sprayed onto the foliage by an automated electrostatic plant sprayer equipped with an atomizing spray nozzle. The plants were dried in the sprayer fume hood and then removed from the sprayer. Each pot was placed into perforated plastic bags with a zip closure. Ten to 11 armyworm larvae were placed into the bag and the bags zipped closed. Test plants were maintained in a growth room at 25° C. and 20-40% relative humidity for 4 days, avoiding direct exposure to fluorescent light (24 hour photoperiod) to prevent trapping of heat inside the bags. Mortality and reduced feeding were assessed 4 days after treatment, compared to untreated control plants.

| SMILES | mortality at 800 ppm [1] [%] | mortality at 800 ppm [2] [%] | mortality at 500 ppm [3] [%] | mortality in comparison with untreated controls [4] | mortality at 300 ppm [5] [%] |
| --- | --- | --- | --- | --- | --- |
| CCNc1nc(-c2ccc(C(F)(F)F)cc2)nc2cc(C(F)(F)F)ccc12 [I-209, [2-(4-Trifluoromethylphenyl)-7-trifluoromethyl-quinazolin-4-yl]ethylamine] | ≥ 50 | ≥ 50 | ≥ 50 | – | – |
| CCNc1nc(-c2ccc(F)cc2)nc2cc(C(F)(F)F)ccc12 [I-201] | – | – | – | at least 50% | – |
| CCNc1nc(-c2ccc(Cl)cc2)nc2cc(C(F)(F)F)ccc12 [I-99, [2-(4-Chloro-phenyl)-7-trifluoromethyl-quinazolin-4-yl]ethylamine] | ≥ 50 | ≥ 50 | ≥ 50 | – | ≥ 50 |
